Data taken from patent US10952940B2, “Reagents and methods for mineralization of tooth enamel” (UNIVERSITY OF WASHINGTON, priority 2016, dated 2021).

Experiments:
[1] = In vitro re-mineralization of tea-stained rat tooth using the peptide solution; settings: tea-stained rat tooth quarter; peptide 10 min 37° C., then CaCl2/KH2PO4 16 hours
Protocol: Rat teeth (molars) were obtained from sacrificed rats (for example, Sprague Dawley rats, age 3 weeks or older) from animal facility, collected, and stored in 100% alcohol. Prior to the re-mineralization experiments the teeth were stored in 1% bleach for 24 hours. […] The teeth were then dried in an incubator in air at 37° C. for 3-6 hours to produce dry surface. The root site and section the crown were removed vertically using a diamond blade. Pictures were taken with camera attached to optical microscope. Exposed dentine sites in the one half of the sectioned tooth were etched with 35% phosphoric acid (Ultraetch™) for 60 seconds (to facilitate the stain intake). The etching gel was removed by rinsing the sample with distilled water for 3 minutes. The staining solution was prepared by boiling 2 g of tea in 100 ml of deionized water for 5 minutes, and then cooled down to room temperature and filtered. The tooth sample was soaked in the staining solution and incubated at 37° C. at 150 rpm for 24 hours. The tooth was removed from the staining solution and sonicated for 30 seconds in deionized water (sonic bath) to remove the excess amount of tea particles attached to tooth extrinsically. The one half of the sectioned tooth was cut vertically into half again to form two quarter sections of the tooth. A second set of pictures were taken with camera attached to optical microscope. […]

[2] = Solution mineralization approach, color measurements with Chroma Meter; parameters: species or system human; settings: peptide 10 min, calcium/phosphate ions 2 hours, 37° C.; 25 rounds
Source text: The root site of an extracted human tooth was removed and the crown portion of the tooth was sectioned vertically into half. A thin layer of enamel was removed from one half of the sectioned tooth such that the dentin layer is exposed without completely removing the enamel on the tooth. This allowed imaging of the enamel surfaces after the mineralization experiment without the problem of surface reflection, and provides a more parallel surface from which to compare the whiteness results. The sectioned tooth was fixed onto a glass slide with epoxy. Initial color measurements of each of the four sides of the sectioned tooth were obtained using a Minolta Chroma Meter CR-200 (Konica Minolta, Tokyo, Japan), according to manufacturer instructions, using a white background and a black background. The sectioned tooth was incubated in a mineralization polypeptide solution for 10 minutes at 37° C. and then in a solution with calcium ions and phosphate ions for 2 hours at 37° C. Color measurements of each of the four sides of the sample were taken as described initially. The sectioned was rinsed with deionized water and the remineralization process (incubation in polypeptide solution, incubation in solution of ion sources, and rinsing with deionized water) was repeated for a total of 25 rounds. The mineralization polypeptide was SYENSHSQAINVDRT (shADP5; SEQ ID NO:16).

Sequence: SYENSHSQAINVDRT [shADP5, 15-amino acid long amelogenin-derived peptide, shortened human ADP5]
- tooth color compared with control [1]: lighter in color than the control
- whiteness of the tooth enamel [2]: improved with each round of remineralization
